Results reported in the NIST ThermoML archive (doi:10.1021/je300568h).
± gives the expanded uncertainty stated by the source.

Settings: Liquid, Ebulliometric method (Recirculating still)

| vapor or sublimation pressure (420.2 K) [kPa] | vapor or sublimation pressure (436.7 K) [kPa] | vapor or sublimation pressure (448.2 K) [kPa] | vapor or sublimation pressure (457.9 K) [kPa] | vapor or sublimation pressure (330.9 K) [kPa] | vapor or sublimation pressure (345 K) [kPa] | vapor or sublimation pressure (355.1 K) [kPa] | vapor or sublimation pressure (363.2 K) [kPa] | vapor or sublimation pressure (366.7 K) [kPa] | Structure (SMILES) |
| --- | --- | --- | --- | --- | --- | --- | --- | --- | --- |
| 29.84 ± 0.74 | 49.84 ± 0.89 | 69.83 ± 1.2 | 89.83 ± 1.3 |  |  |  |  |  | CCCCCCCCN(C)C [N,N-dimethyl-1-octanamine] |
|  |  |  |  | 29.84 ± 0.86 | 49.84 ± 0.99 | 69.83 ± 1.3 | 89.83 ± 1.6 | 99.83 ± 1.7 | CCCCN(C)C [N,N-dimethylbutanamine] |
